Laboratory results reported in ChEMBL document CHEMBL1153384, “Synthesis, antimalarial activity, and preclinical pharmacology of a novel series of 4'-fluoro and 4'-chloro analogues of amodiaquine. Identification of a suitable "back-up" compound for N-tert-butyl isoquine” (J Med Chem, 2009).

Columns and labels:
Plasmodium yoelii [1] = assay: In vivo antimalarial activity against Plasmodium yoelii NS peroral dosage; assay type: functional; conditions: po
Plasmodium falciparum [2] = assay: Antimalarial activity against chloroquine-sensitive Plasmodium falciparum 3D7; assay type: functional, organism-based
[3] = Clearance in iv dosed mouse; assay type: ADME, organism-based; conditions: in vivo
[4] = Clearance in iv dosed rat; assay type: ADME, organism-based; conditions: in vivo
[5] = Oral bioavailability in mouse; assay type: ADME, organism-based; conditions: in vivo
[6] = Oral bioavailability in rat; assay type: ADME, organism-based; conditions: in vivo
Cytochrome P450 3A4 [7] = target: T1, Cytochrome P450 3A4 (Homo sapiens, UniProt P08684); assay: Inhibition of human CYP3A4 using PPR substrate; assay type: ADME
T1 sequence (P08684 whole entry): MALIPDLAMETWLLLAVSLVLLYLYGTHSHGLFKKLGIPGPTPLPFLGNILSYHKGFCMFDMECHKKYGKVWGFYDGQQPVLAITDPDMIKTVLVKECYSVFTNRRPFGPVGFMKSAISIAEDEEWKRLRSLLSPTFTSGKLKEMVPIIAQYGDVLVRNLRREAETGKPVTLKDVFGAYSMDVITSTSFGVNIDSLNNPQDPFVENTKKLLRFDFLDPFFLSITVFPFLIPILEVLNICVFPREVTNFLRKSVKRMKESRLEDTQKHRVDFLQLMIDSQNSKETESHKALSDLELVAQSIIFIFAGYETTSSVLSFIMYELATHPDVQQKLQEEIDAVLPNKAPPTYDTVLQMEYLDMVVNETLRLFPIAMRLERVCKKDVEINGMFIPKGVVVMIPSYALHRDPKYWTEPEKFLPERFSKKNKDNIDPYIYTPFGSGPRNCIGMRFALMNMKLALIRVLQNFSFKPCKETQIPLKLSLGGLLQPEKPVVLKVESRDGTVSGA

Cytochrome P450 1A2 = target: T2, Cytochrome P450 1A2 (Homo sapiens, UniProt P05177); assay: Inhibition of human CYP1A2; assay type: ADME
T2 sequence (P05177 whole entry): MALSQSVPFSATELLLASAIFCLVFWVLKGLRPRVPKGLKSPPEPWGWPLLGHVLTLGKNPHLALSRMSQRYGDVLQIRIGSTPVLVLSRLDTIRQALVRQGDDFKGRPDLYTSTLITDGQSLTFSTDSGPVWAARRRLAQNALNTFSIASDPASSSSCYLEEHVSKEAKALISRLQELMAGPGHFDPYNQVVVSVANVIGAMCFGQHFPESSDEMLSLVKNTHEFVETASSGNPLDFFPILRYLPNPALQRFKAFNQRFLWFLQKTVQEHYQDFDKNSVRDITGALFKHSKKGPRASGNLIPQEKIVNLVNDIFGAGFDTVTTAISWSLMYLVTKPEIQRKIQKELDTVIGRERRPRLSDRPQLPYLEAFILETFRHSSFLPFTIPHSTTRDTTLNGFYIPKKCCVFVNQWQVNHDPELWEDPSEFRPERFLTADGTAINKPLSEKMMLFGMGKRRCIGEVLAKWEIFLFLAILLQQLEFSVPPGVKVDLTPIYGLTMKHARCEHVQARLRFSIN

Cytochrome P450 2D6 = Cytochrome P450 2D6 (Homo sapiens, UniProt P10635); assay: Inhibition of human CYP2D6; assay type: ADME
Chain of Cytochrome P450 2D6 (P10635 whole entry): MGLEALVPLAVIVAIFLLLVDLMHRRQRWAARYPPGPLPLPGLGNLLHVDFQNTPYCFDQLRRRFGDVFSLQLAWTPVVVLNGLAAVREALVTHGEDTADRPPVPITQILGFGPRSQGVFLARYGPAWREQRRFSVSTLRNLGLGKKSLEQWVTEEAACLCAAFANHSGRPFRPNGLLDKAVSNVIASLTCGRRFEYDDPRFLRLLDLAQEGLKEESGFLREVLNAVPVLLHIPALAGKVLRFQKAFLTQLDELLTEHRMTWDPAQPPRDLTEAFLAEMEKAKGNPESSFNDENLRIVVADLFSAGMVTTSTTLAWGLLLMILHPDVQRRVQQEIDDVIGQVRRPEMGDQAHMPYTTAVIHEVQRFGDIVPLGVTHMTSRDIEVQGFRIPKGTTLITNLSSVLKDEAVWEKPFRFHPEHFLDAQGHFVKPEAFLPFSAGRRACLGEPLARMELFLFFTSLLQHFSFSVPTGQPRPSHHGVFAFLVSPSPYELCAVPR

Cytochrome P450 2C8 = target: T3, Cytochrome P450 2C8 (Homo sapiens, UniProt P10632); assay: Inhibition of human CYP2C8; assay type: ADME
T3 sequence (P10632 whole entry): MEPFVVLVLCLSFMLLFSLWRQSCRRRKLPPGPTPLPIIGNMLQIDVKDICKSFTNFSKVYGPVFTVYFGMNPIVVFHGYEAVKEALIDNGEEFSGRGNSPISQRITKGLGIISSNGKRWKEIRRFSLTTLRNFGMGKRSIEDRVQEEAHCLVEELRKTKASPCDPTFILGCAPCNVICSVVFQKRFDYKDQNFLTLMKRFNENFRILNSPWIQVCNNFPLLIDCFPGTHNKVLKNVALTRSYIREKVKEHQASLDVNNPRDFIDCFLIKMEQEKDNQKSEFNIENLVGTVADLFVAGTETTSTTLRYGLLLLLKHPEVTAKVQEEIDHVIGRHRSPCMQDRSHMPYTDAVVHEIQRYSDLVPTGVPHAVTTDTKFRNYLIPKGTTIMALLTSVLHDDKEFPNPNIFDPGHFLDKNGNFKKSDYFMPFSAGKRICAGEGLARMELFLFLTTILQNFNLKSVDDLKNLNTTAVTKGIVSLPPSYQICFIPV

Cytochrome P450 2C9 = Cytochrome P450 2C9 (Homo sapiens, UniProt P11712); assay: Inhibition of human CYP2C9; assay type: ADME
Chain of Cytochrome P450 2C9 (P11712 whole entry): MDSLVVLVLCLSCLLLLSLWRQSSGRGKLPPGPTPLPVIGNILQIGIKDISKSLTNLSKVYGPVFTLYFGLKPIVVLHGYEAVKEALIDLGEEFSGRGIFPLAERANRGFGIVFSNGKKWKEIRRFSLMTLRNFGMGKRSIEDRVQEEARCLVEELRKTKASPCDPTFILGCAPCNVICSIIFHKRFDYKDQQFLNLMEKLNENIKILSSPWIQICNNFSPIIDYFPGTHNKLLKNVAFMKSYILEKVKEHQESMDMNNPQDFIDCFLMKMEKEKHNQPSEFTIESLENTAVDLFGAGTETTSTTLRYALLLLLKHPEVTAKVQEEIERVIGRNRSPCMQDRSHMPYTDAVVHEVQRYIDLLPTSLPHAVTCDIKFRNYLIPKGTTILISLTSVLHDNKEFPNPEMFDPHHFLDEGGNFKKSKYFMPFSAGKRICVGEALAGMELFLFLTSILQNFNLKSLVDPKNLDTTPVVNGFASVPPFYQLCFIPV

Cytochrome P450 2C19 = Cytochrome P450 2C19 (Homo sapiens, UniProt P33261); assay: Inhibition of human CYP2C19; assay type: ADME
Chain of Cytochrome P450 2C19 (P33261 whole entry): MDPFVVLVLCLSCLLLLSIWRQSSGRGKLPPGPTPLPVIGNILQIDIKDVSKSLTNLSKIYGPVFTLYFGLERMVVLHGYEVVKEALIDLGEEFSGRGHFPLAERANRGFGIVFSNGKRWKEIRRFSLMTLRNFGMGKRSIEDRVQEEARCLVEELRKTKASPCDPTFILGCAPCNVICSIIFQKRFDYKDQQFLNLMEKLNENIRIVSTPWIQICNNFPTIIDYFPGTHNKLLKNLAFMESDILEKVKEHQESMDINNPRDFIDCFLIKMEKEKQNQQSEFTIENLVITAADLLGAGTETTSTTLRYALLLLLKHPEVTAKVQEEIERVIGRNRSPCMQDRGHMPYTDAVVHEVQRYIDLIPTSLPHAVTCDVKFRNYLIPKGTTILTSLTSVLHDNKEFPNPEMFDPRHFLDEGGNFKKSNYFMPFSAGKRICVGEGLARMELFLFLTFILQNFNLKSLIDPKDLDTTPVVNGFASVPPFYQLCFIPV

Plasmodium yoelii [8] = assay: Antimalarial activity as reduced parasitaemia against Plasmodium yoelii 17X infected CD1 mice (Mus musculus) perorally dosed daily for 4 days; assay type: functional; conditions: po, 96 h
Cytochrome P450 3A4 [9] = target: T1, Cytochrome P450 3A4; assay: Inhibition of human CYP3A4 using DEF substrate
Plasmodium yoelii [10] = assay: Antimalarial activity as minimal concentration for parasite elimination at day 23 against Plasmodium yoelii 17X intravenously inoculated CD1 mice (Mus musculus) dosed 1 hrs post infection then daily for 4 days
Plasmodium falciparum [11] = assay: Antimalarial activity against chloroquine-resistant Plasmodium falciparum TM6; assay type: functional, organism-based
Plasmodium falciparum [12] = assay: Antimalarial activity against chloroquine-sensitive Plasmodium falciparum HB3; assay type: functional, organism-based
[13] = Partition coefficient, log P of the compound; assay type: physicochemical; conditions: octanol/water
Cytochrome P450 3A4 [14] = target: T1, Cytochrome P450 3A4; assay: Inhibition of human CYP3A4 using DEF substrate; assay type: ADME
[15] = Toxicity against Wistar rat hepatocytes after 6 hrs by trypan blue exclusion method; assay type: cell-based, Hepatocyte; conditions: read-out: TC50
Mus musculus [16] = assay: Toxicity in po dosed mouse assessed as maximal nonlethal dose administered as single dose; assay type: organism-based; conditions: in vivo
[17] = Toxicity in po dosed mouse assessed as drug level causing no observed adverse effects administered as single dose; assay type: organism-based; conditions: in vivo, read-out: Activity
[18] = Toxicity in po dosed mouse assessed as drug level causing no observed adverse effects administered as once daily for 4 days; assay type: organism-based; conditions: in vivo, read-out: Activity
Mus musculus [19] = assay: Toxicity in po dosed mouse assessed as induction of hepatotoxicity at drug dose above no observed adverse effects level; assay type: organism-based; conditions: in vivo
Mus musculus [20] = assay: Toxicity in po dosed mouse assessed as induction of hematological toxicity at drug dose above no observed adverse effects level; assay type: organism-based; conditions: in vivo
[21] = Distribution coefficient, log D at pH 7.4; conditions: octanol/water
Plasmodium falciparum [22] = assay: Antimalarial activity against chloroquine-resistant Plasmodium falciparum V1/S; assay type: functional, organism-based; conditions: V1S
Plasmodium falciparum [23] = assay: Antimalarial activity against chloroquine-resistant Plasmodium falciparum J164; assay type: functional, organism-based
Heme [24] = assay: Binding affinity to heme assessed as binding constant for stepwise binding of 2 equivalent of drug to 1 molecule of heme in presence of 40% DMSO by UV-visible spectroscopy
Heme [25] = assay: Binding affinity to heme assessed as binding constant for stepwise binding of 2 molecules of heme to 1 equivalent of drug in presence of 40% DMSO by UV-visible spectroscopy
[26] = target: β-hematin formation (no protein target); assay: Inhibition of beta-hematin formation as molar equivalent relative to hemin causing blockade in BHIA
Heme [27] = tested on: Heme
Heme [28] = tested on: Heme; remark: listed apart in the source
Plasmodium falciparum [29] = assay: Antimalarial activity against […] Plasmodium falciparum PH3; assay type: functional, organism-based
Plasmodium falciparum [30] = assay: Antimalarial activity against chloroquine-resistant Plasmodium falciparum TM4; assay type: functional, organism-based
Plasmodium falciparum [31] = assay: Antimalarial activity against […] Plasmodium falciparum Dd2; assay type: functional, organism-based
Plasmodium falciparum [32] = assay: Antimalarial activity against chloroquine-resistant Plasmodium falciparum K1

CCN(CC)Cc1ccc(Nc2ccnc3cc(Cl)ccc23)cc1O [ISOQUINE]
ED50 (Plasmodium yoelii [1]): 1.6 mg/kg
IC50 (Plasmodium falciparum [2]): 7.8 nM
clearance [3]: 219 mL/min/kg
clearance [4]: 89.2 mL/min/kg
bioavailability [5]: 21%
bioavailability [6]: 17%
IC50 (Cytochrome P450 3A4 [7]): Active
IC50 (Cytochrome P450 1A2): 23000 nM
IC50 (Cytochrome P450 2D6): 7000 nM
IC50 (Cytochrome P450 2C8): 13000 nM
IC50 (Cytochrome P450 2C9): 75000 nM
IC50 (Cytochrome P450 2C19): 39000 nM
ED50 (Plasmodium yoelii [8]): 5.2 mg/kg
ED90 (Plasmodium yoelii [8]): 7.6 mg/kg
IC50 (Cytochrome P450 3A4 [9]): > 100000 nM
Activity (Plasmodium yoelii [10]): >40 mg/kg

CCN1CCN(Cc2cc(Nc3ccnc4cc(Cl)ccc34)ccc2Cl)CC1
IC50 (Plasmodium falciparum [2]): 39.7 nM
IC50 (Plasmodium falciparum [11]): 10.3 nM
IC50 (Plasmodium falciparum [12]): 9.6 nM

Clc1ccc2c(Nc3ccc(Cl)c(CN4CCCC4)c3)ccnc2c1
IC50 (Plasmodium falciparum [11]): 4.2 nM
IC50 (Plasmodium falciparum [12]): 15.2 nM

CCN(CC)Cc1cc(Nc2ccnc3cc(Cl)ccc23)ccc1O.Cl
ED50 (Plasmodium yoelii [1]): 7.4 mg/kg
IC50 (Plasmodium falciparum [11]): 7.2 nM
IC50 (Plasmodium falciparum [12]): 5.5 nM
logP [13]: 4.37
IC50 (Cytochrome P450 3A4 [14]): 28000 nM
IC50 (Cytochrome P450 3A4 [7]; read-out: IC50): > 100000 nM
CC50 at 6 h [15]: 78000 nM
Activity (Mus musculus [16]): > 500 mg/kg
NOAEL [17]: 100 mg/kg
NOAEL at 96 h [18]: 100 mg/kg
Activity (Mus musculus [19]): Toxic
Activity (Mus musculus [20]): Toxic
logD [21]: 3.08
IC50 (Plasmodium falciparum [22]): 8.9 nM
IC50 (Plasmodium falciparum [23]): 18.5 nM
log Ks (Heme [24]): 4.4
log Ks (Heme [25]): 6.2

O=C(NCc1cc([N+](=O)[O-])ccc1F)c1ncc[nH]1
IC50 (Plasmodium falciparum [11]): 5 nM
IC50 (Plasmodium falciparum [12]): 10.1 nM

CC(C)(C)NCc1ccc(Nc2ccnc3cc(Cl)ccc23)cc1O
IC50 (Plasmodium falciparum [2]): 6 nM

Clc1ccc2c(Nc3ccc(Cl)c(CN4CCCCC4)c3)ccnc2c1
IC50 (Plasmodium falciparum [2]): 25.7 nM
IC50 (Plasmodium falciparum [11]): 9.4 nM
IC50 (Plasmodium falciparum [12]): 12.3 nM

CC(C)(C)NCc1cccc(Nc2ccnc3cc(Cl)ccc23)c1
IC50 [26]: 1.65 molar ratio

OC(c1cc(C(F)(F)F)nc2c(C(F)(F)F)cccc12)C1CCCCN1 (stereo unspecified)
log Ks (Heme [24]): 3.84
log Ks (Heme [25]): 3.17

CCCCN(CCCC)Cc1cc(Nc2ccnc3cc(Cl)ccc23)ccc1Cl
IC50 (Plasmodium falciparum [2]): 345 nM
IC50 (Plasmodium falciparum [11]): 96.3 nM
IC50 (Plasmodium falciparum [12]): 144 nM

CN1CCN(Cc2cc(Nc3ccnc4cc(Cl)ccc34)ccc2F)CC1
IC50 (Plasmodium falciparum [2]): 35.1 nM

CCN(CC)Cc1cc(Nc2ccnc3cc(Cl)ccc23)ccc1F
IC50 (Plasmodium falciparum [2]): 27.3 nM

c1ccncc1
log Ks (Heme [24]): 2.5
log Ks (Heme [25]): 0.18
log Ks (Heme [27]): 2.24
log Ks (Heme [28]): 2.54

CCNCc1cc(Nc2ccnc3cc(Cl)ccc23)ccc1O [DESETHYL AMODIAQUINE]
IC50 (Cytochrome P450 3A4 [14]): 24000 nM
IC50 (Cytochrome P450 3A4 [7]; read-out: IC50): > 100000 nM
IC50 (Cytochrome P450 1A2): 28000 nM
IC50 (Cytochrome P450 2D6): 6400 nM
IC50 (Cytochrome P450 2C8): 20000 nM
IC50 (Cytochrome P450 2C9): 58000 nM
IC50 (Cytochrome P450 2C19): 54000 nM

Fc1ccc(Nc2ccnc3cc(Cl)ccc23)cc1CN1CCCC1
IC50 (Plasmodium falciparum [2]): 29.7 nM
IC50 (Plasmodium falciparum [11]): 60.8 nM
IC50 (Plasmodium falciparum [12]): 63.7 nM
IC50 (Plasmodium falciparum [29]): 25 nM
IC50 (Plasmodium falciparum [30]): 46.9 nM
IC50 (Plasmodium falciparum [31]): 36.9 nM
IC50 (Plasmodium falciparum [22]): 52.5 nM
IC50 (Plasmodium falciparum [23]): 34.7 nM
IC50 (Plasmodium falciparum [32]): 45.9 nM

Fc1ccc(Nc2ccnc3cc(Cl)ccc23)cc1CN1CCOCC1
IC50 (Plasmodium falciparum [2]): 551 nM

C=C[C@H]1CN2CC[C@H]1C[C@H]2[C@H](O)c1ccnc2ccc(OC)cc12
log Ks (Heme [24]): 4.4
log Ks (Heme [25]): 4.1

CN1CCN(Cc2cc(Nc3ccnc4cc(Cl)ccc34)ccc2Cl)CC1
IC50 (Plasmodium falciparum [2]): 86.8 nM
IC50 (Plasmodium falciparum [11]): 24.4 nM
IC50 (Plasmodium falciparum [12]): 54.5 nM

Clc1ccc2c(Nc3cccc(Cn4ccnc4)c3)ccnc2c1
IC50 [26]: 2.65 molar ratio

CCNCc1ccc(Nc2ccnc3cc(Cl)ccc23)cc1O [DESETHYL ISOQUINE]
clearance [3]: 43.5 mL/min/kg
clearance [4]: 61.5 mL/min/kg
bioavailability [5]: 100%
bioavailability [6]: 60%
ED50 (Plasmodium yoelii [8]): 5.5 mg/kg
ED90 (Plasmodium yoelii [8]): 8 mg/kg
Activity (Plasmodium yoelii [10]): >40 mg/kg

Fc1ccc(Nc2ccnc3cc(Cl)ccc23)cc1CN1CCCCC1
IC50 (Plasmodium falciparum [2]): 33.2 nM

Clc1ccc2c(Nc3ccc(Cl)c(CN4CCN(c5ccccn5)CC4)c3)ccnc2c1
IC50 (Plasmodium falciparum [2]): 27.2 nM
IC50 (Plasmodium falciparum [11]): 500 nM
IC50 (Plasmodium falciparum [12]): 485 nM

CCCCN(CCCC)Cc1cc(Nc2ccnc3cc(Cl)ccc23)ccc1F
IC50 (Plasmodium falciparum [2]): 95.2 nM

CCCN(CCC)Cc1cc(Nc2ccnc3cc(Cl)ccc23)ccc1F
IC50 (Plasmodium falciparum [2]): 85.2 nM

CC(C)N1CCN(Cc2cc(Nc3ccnc4cc(Cl)ccc34)ccc2Cl)CC1
IC50 (Plasmodium falciparum [11]): 6.4 nM
IC50 (Plasmodium falciparum [12]): 9.1 nM
logP [13]: 5.14
IC50 [26]: 1.66 molar ratio

CCN(CC)Cc1cc(Nc2ccnc3cc(Cl)ccc23)ccc1Cl
IC50 (Plasmodium falciparum [2]): 30.4 nM
IC50 (Plasmodium falciparum [11]): 10.2 nM
IC50 (Plasmodium falciparum [12]): 12.3 nM

Fc1ccc(Nc2ccnc3cc(Cl)ccc23)cc1Cn1ccnc1
IC50 (Plasmodium falciparum [2]): 27.2 nM
IC50 [26]: 1.78 molar ratio

CCN(CC)CCCC(C)Nc1ccnc2cc(Cl)ccc12 (stereo unspecified) [CHLOROQUINE]
NOAEL [17]: 300 mg/kg
NOAEL at 96 h [18]: 300 mg/kg
Activity (Mus musculus [19]): Toxic
Activity (Mus musculus [20]): Toxic

CCCN(CCC)Cc1cc(Nc2ccnc3cc(Cl)ccc23)ccc1Cl
IC50 (Plasmodium falciparum [2]): 277 nM
